Numbered stars: 1 amine (or outer) side, 2 acyl side, 3 side chain; on linkers, the order of the positions; unused ones are H or OH. Square brackets hold non-standard residues; d marks the D form. Peptide text beside a SMILES is read from it. * marks the point of attachment. X1 = N[C@@H](CC(=O)[*:2])[C@H](Cc1ccccc1)N[*:1]; Isovaleryl = CC(C)CC(=O)*
Legend:
rat knee joint = experiment: Carrageenan (CAR)-induced knee joint inflammation: swelling and thermal hyperalgesia (Hargreaves test); assay type: in vivo; conditions: intra-articular administration 30 minutes before CAR
Method: In order to induce an inflammation reaction, a carrageenan solution (CAR, 1%, 50 μl) was injected intra-articularly on one side into a rat knee joint. The uninjected side was used for control purposes. Six animals per group were used. The […] was determined by means of a micrometer screw (medial-lateral on the knee joint), and the thermal hyperalgesia was determined by means of a directed infrared light source by the Hargreaves method (Hargreaves et al., 1988) on the sole of the foot. Since the site of inflammation (knee joint) is different from the site of measurement (paw sole), use is made here of the term secondary thermal hyperalgesia, the mechanism of which is of importance for the discovery of effective analgesics.
Experimental description of thermal hyperalgesia (Hargreaves test): the experimental animal is placed in a plastic chamber on a quartz sheet. Before testing, the experimental animal is firstly given about 5-15 minutes time to familiarise itself with the environment. As soon as the experimental animal no longer moves so frequently after the familiarisation phase (end of the exploration phase), the infrared light source, whose focus is in the plane of the glass bottom, is positioned directly beneath the rear paw to be stimulated. An experiment run is then started by pressing the button: infrared light results in an increase in the skin temperature of the rear paw. The experiment is terminated either by the experimental animal raising the rear paw (as an expression of the pain threshold being reached) or by automatic switching-off of the infrared light source when a prespecified maximum temperature has been reached. Light reflected by the paw is recorded as long as the experimental animal sits still. Withdrawal of the paw interrupts this reflection, after which the infrared light source is switched off and the time from switching on to switching off is recorded. The instrument is calibrated in such a way that the infrared light source increases the skin temperature to about 45 degrees Celsius in 10 s (Hargreaves et al. 1988). […]

[1] = target: cathepsin D isolated from the human liver (Homo sapiens (Human), UniProt P07339); experiment: In-vitro fluorescence assay for identification of cathepsin D inhibitors; assay type: biochemical; conditions: cathepsin D 1.4 nM, pH 5.5; read-out: CatD assay IC50-
Chain of cathepsin D isolated from the human liver (P07339 65-161): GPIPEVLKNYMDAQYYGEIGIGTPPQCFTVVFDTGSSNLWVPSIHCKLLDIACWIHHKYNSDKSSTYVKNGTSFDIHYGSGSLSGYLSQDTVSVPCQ
Chain of cathepsin D isolated from the human liver (P07339 169-412): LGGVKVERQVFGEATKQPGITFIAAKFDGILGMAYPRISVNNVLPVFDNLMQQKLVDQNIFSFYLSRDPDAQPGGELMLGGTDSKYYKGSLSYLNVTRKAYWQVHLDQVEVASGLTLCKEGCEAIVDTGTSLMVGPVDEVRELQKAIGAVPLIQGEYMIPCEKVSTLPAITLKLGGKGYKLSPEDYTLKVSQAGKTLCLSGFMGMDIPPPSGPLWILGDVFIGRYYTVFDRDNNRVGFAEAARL
Outline: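 Human liver cathepsin D (1.4 nM final) preincubated 10 min at room temperature with serially diluted compounds in 100 mM sodium acetate pH 5.5, 1.25% DMSO, 0.25% CHAPS. Reaction started with 5 μM MCA/Dnp-quenched peptide substrate. Fluorescence increase (ex 340/em 450 nm) over 60 min at room temperature compared with compound-free wells.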

bovine explants = experiment: Cartilage explant assay (pH-induced cartilage degradation, GAG liberation); assay type: cell-based; conditions: Bos taurus, 72 h, pH 5.5, 3 days
Description: In order to investigate the effect of potential cathepsin D inhibitors on cartilage degradation, a pH-induced model based on bovine explants is used. The pH of the medium in which the explants are cultivated is matched here to the pathophysiological pH of an arthrotic knee. This pH is pH 5.5. In this ex vivo model, potential cathepsin D inhibitors are subsequently investigated for their action with respect to stopping of the cartilage degradation process. If the cartilage is destroyed, glycosaminoglycans (GAGs) are released into the cell culture supernatant. The amount of GAGs liberated can be determined quantitatively with the aid of DMMB (dimethylmethylene blue hydrochloride). If sulfated GAGs are detected using dimethylmethylene blue hydrochloride, the decrease in the absorption at 633 nm is utilised. […] In order to determine the concentration, a calibration line is also recorded using chondroitin sulfate.
The bovine explants are firstly prepared. The induction of the cartilage degradation is carried out in 96-multiwell plates. One explant is cultivated per well. In each case, 200 μl of DMEM (incubation medium pH 5.5) without FBS+30 μg/ml of ascorbic acid are added. Thus negative control, explants (n=4) are incubated at pH 7.4 (without FBS). This control is not included in the calculation of the data, but instead ensures that the pH change has the desired effect on the liberation of GAG. At this point, the substances to be tested are added. No preincubation of the explants is carried out. The explants are cultivated with the corresponding substances for 3 days in the incubator at 37° C. and 7.5% CO2.
In order to investigate the effect of cathepsin D inhibitors on the liberation of GAG (glycosaminoglycan), the substances are employed in the desired concentration and cultivated for 3 days. The compounds to be tested are tested in a first experiment in a concentration of 1 μM and 1% of DMSO. Substances which have an effect of >50% on the liberation of GAG (this corresponds to <50% of the control in the Assay Explorer) are tested in the next experiment at 100 nM and 1% of DMSO. Substances which have an effect of >50% on the liberation of GAG under these conditions (this corresponds to <50% of the control in the Assay Explorer) are tested in a concentration/effect relationship. The compounds here are investigated in the following concentrations: 30 μM, 10 μM, 3 μM, 1 μM, […], 0.1 μM, 0.03 μM, 0.01 μM.
The positive control used is pepstatin A with a concentration of 0.01 μM. The assay window is defined by the control (pH 5.5), defined as 0% effect, and the control pH 5.5+0.01 μM pepstatin A, defined as 100% effect. After incubation for 3 days, the cell culture supernatants are collected and stored at −20° C. or measured directly. The amount of liberated GAG is measured photometrically.
The effect (1 value) of the respective substance in % based on the positive control (pH 5.5+0.01 μM pepstatin A) and the negative control (pH 5.5) is reported for concentrations of 1 μM and 100 nM. The value represents the average of 4 replicants. In the determination of a concentration/effect relationship, an IC50 value is reported to the database (Assay Explorer).
The cell culture supernatants (200 μl) are either measured directly or stored at −20° C. In order to ensure an accurate determination of the concentration (μg/ml of GAG in the supernatant) of GAG, the measurement values must be located in the linear region of the standard curve. In order to ensure this, various dilutions are routinely introduced (1/5, 1/10, 1/20, 1/40). The dilutions are prepared with medium and introduced automatically (Hamilton) into a 384-well plate (15 μl). 60 μl of DMMB solution are likewise added automatically (or using a multichannel pipette). A rapid colour reaction occurs, which is subsequently measured at 633 nm using a plate reader (for example Envision).

[2] = Stability in bovine synovial fluid; assay type: in vitro ADME; conditions: 1 μM, 48 h at 37° C.
Method: In order to check the stability of individual compounds, a pool of four different bovine synovial fluids is mixed. To this end, about 1 ml per SF is used. The mixture is prepared directly in a 5 ml glass vessel. The SFs are mixed thoroughly, but carefully. No air bubbles or foam should form. To this end, a vortex unit is used at the lowest speed. The compounds to be tested are tested in an initial concentration (unless required otherwise) of 1 μM. After addition of the substance, the batch is again mixed thoroughly and carefully. For visual monitoring, all SF batches are photographed, and the pictures are filed in the eLabBio file for the corresponding experiment. […] The batches are incubated in the incubator for 48 h at 37° C. and 7.5% CO2.
The sampling is carried out after the pre-agreed times (unless required otherwise, see below). 200 μl of the SF are removed from the mixture per time and transferred directly into a 0.5 ml “low-binding” Eppendorf vessel. “Low-binding” Eppendorf vessels are used in order to minimise interaction of the substances with the plastic of the vessels. 200 μl of acetonitrile have already been introduced into the Eppendorf vessel, so that a 1+1 mixture of the SF forms thereafter. This simplifies the subsequent analysis, but precipitation of protein may occur immediately after addition of the SF. This should be noted on the protocol. The 0 h sample is taken immediately after addition of the substance. This corresponds to the 100% value in the stability calculation. Ideally, the concentration employed should be retrieved here. The samples can be frozen at −20° C. • 0 h • 6 h • 24 h • 48 h
The negative control used is SF without substance. The positive control used is SF with 1 μM of substance. This corresponds to the 0 h value and thus 100% stability.
The concentrations measured (ng/ml) are plotted against the time in a graph (GraphPad Prism®). The percentage stability of the substance is determined here. The 100% value used is the initial value in the SF at time 0 h. The data are stored in eLabBio under the respective experiment number and reported in the MSR database (as percent stability after the corresponding incubation times).

IC50 [1] [nM] | Stability in synovial fluid [2] | SMILES | CAR-induced swelling of joint (rat knee joint) | thermal hyperalgesia (rat knee joint; Hargreaves test) | IC50 (bovine explants) [nM]
 |  | C[C@]12C=CC(=O)C=C1CC[C@H]1[C@@H]3C[C@@H](O)[C@](O)(C(=O)CO)[C@@]3(C)C[C@H](O)[C@@]12F [TAC, Triamcinolone, reference compound] | capable of reducing the CAR-induced swelling |  | 
50 |  | CC[C@H](C)[C@H](NC(=O)C[C@H](N)[C@H](Cc1ccccc1)NC(=O)[C@@H](NC(=O)[C@H](CC(C)C)NC(=O)CC(C)C)C(C)C)C(=O)N[C@H](C(=O)O)C(C)C [Compound 23, (S)-2-[(2S,3S)-2-((3S,4S)-3-Amino-4-{(S)-3-methyl-2-[(S)-4-methyl-2-(3-methylbutyrylamino)pentanoylamino]-butyrylamino}-5-phenylpentanoylamino)-3-methyl-pentanoylamino]-3-methylbutyric acid] (Isovaleryl-LV[X1]IV-OH) | no influence on inflammatory swelling | exerts an anti-hyperalgesic action | 
 | stable | CC[C@H](C)[C@H](NC(=O)C[C@H](N)[C@H](Cc1ccccc1)NC(=O)[C@@H](NC(=O)[C@H](Cc1ccccc1)NC(=O)CC(C)C)C(C)C)C(=O)N[C@H](C(=O)O)C(C)C [Compound 33, (S)-2-[(2S,3S)-2-((3S,4S)-3-Amino-4-{(S)-3-methyl-2-[(S)-2-(3-methylbutyrylamino)-3-phenylpropionylamino]-1-oxobutyl-amino}-5-phenylpentanoylamino)-3-methylpentanoylamino]-3-methyl-butyric acid] (Isovaleryl-FV[X1]IV-OH) |  |  | 2.64

From patent publication US9345742B2, “Aminostatin derivatives for the treatment of arthrosis” (MERCK PATENT GMBH, priority 2011, dated 2016)
